Key:
Format in all cases: cell-based, human
HepG2 cells [1] = experiment: mRNA (real-time PCR) and protein (lysate probing) expression in HepG2 cells
Experimental: Using RNAiMAX (Life Technologies/Thermo Fisher Scientific), HepG2 cells, Huh6 cells, Hep3B cells, JHH7 cells, and SKMEL28 cells were each transfected with each siRNA (10 nm). In experiments, the cells were used from 48 to 120 hours after transfection.

HepG2 cells [2] = experiment: Cell proliferation assay, two-dimensional culture (plastic dish), Cyquant
Experimental: Cells were seeded on a plate at 1.0×10^4 cells/mL, and, after 12 hours, the medium was replaced with a medium containing 10% serum. While the cell number was counted every 48 hours, the cells were cultured up to 10 days. The measurement of the cell number was performed using Cyquant NF assays (Life Technologies/Thermo Fisher Scientific) according to protocols recommended by the manufacturer.
Mock HepG2 cells (having a vector only, containing no GREB1) or GREB1-transduced HepG2 cells were transfected with control siRNA or two different types of siRNA (GREB1 #1 siRNA and GREB1 #2 siRNA), then two-dimensional culture (plastic dish culture) was performed, and a relative cell number was calculated by Cyquant assay overtime. As a result, in GREB1 knockdown, proliferative capacity of HepG2 cells in two-dimensional culture was reduced. However, when GREB1-transduced HepG2 cells were transfected with siRNAs against GREB1 (GREB1 #1 siRNA/GREB1 and GREB1 #2 siRNA/GREB1), the proliferative capacity of HepG2 cells was not affected (see a of FIG. 4).

HepG2 cells [3] = experiment: Three-dimensional Matrigel culture, area of spheres; settings: 3D Matrigel for 5 days
Experimental: Cells grown on a glass cover slip were fixed with PBS containing 4% (w/v) paraformaldehyde at room temperature for 10 minutes, and permeabilization treatment was performed in PBS containing 0.2% (w/v) Triton X-100 and 2 mg/ml BSA for 10 minutes. Further, cells grown by three-dimensional culture were fixed in PBS containing 4% (w/v) paraformaldehyde at room temperature for 30 minutes, and blocked in PBS containing 0.5% (w/v) Triton X-100 and 40 mg/ml BSA for 30 minutes. […]
Further, HepG2 cells transfected with control siRNA or siRNA (GREB1 #2 siRNA) were cultured in 3D Matrigel for 5 days, and the cultured cells were stained with phalloidin to measure the areas of spheres (n=20). […] The ratio of spheres having polarized lumens was calculated as a ratio of spheres having F-actin-positive central microlumen to the total spheres.
Further, HepG2 cells expressing GFP or GFP-GREB1 were transfected with control ASO or each of the above-described GREB1 ASOs, and cultured in three-dimensional Matrigel for 4 days. The cultured cells were stained with phalloidin and Hoechst33342, and the areas of spheres were calculated (n=50).

GREB1 #2 siRNA: siRNA against human GREB1; sense 5′-CCUCCUACAAAGCAAUAUUTT-3′ (SEQ ID NO: 6), antisense SEQ ID NO: 7 (antisense AAUAUUGCUUUGUAGGAGGTT; chemistry not given here)
expression levels of PAI-1 and SNAIL2 (HepG2 cells [1]; HepG2/GFP cells, real-time PCR, n=3): increased
PAI-1 and SNAIL2 phenotypes of GREB1 knockdown (HepG2 cells [1]; HepG2/GFP-GREB1 cells (expression of GFP-GREB1)): restored
amounts of cleaved caspase 3 and PARP1 (HepG2 cells [1]; HepG2 cells, 0.1% FBS for 2 days, lysate probing): increased
expressions of β-catenin and Axin2 (HepG2 cells [1]; HepG2 cells, GREB1 knockdown, lysate probing): no effect
expressions of PRLR and XBP1 (ER signal target genes) (HepG2 cells [1]; HepG2 cells, GREB1 knockdown, real-time PCR): no effect
expression of cell cycle regulators cyclinA, cyclinB, phosphorylated histone H3 (HepG2 cells [1]; HepG2 cells, medium containing 1% FBS for 1 day, lysate probing): decreases
increases in mRNA levels of PAI-1 and SNAIL2 by knockdown of GREB1 (HepG2 cells [1]; HepG2 cells, presence or absence of TGFβ receptor inhibitor (ALK5 inhibitor)): TGFβ receptor signal dependent
expressions of DLK1, AFP, and PEG3 (HepG2 cells [1]; HepG2 cells, real-time PCR): significantly decreased
decrease in expression of AFP by knockdown of GREB1 (HepG2 cells [1]; Smad2/3 knockout HepG2 cells vs HepG2 cells, real-time PCR): restored
decrease in expression of DLK1 by knockdown of GREB1 (HepG2 cells [1]; effect of Smad2/3 knockout in HepG2 cells): no effect
proliferative capacity of HepG2 cells in two-dimensional culture (HepG2 cells [2]; GREB1-transduced HepG2 cells): not affected
proliferative capacity of HepG2 cells in two-dimensional culture (HepG2 cells [2]; mock HepG2 cells, relative cell number by Cyquant over time): reduced
ratio of spheres having polarized lumens (HepG2 cells [3]): increased
area of sphere (HepG2 cells [3]; phalloidin, n=20): reduced the area of sphere to half

— patent publication US20220249538A1, “TREATMENT AGENT FOR SEX HORMONE-INSENSITIVE GREB1-POSITIVE TUMORS” (OSAKA UNIVERSITY, priority 2019, published 2022)
